Measurements reported in article PMC12723578 (Archiv Der Pharmazie, 2025).
Values joined by “and” are separate entries in the source; they are usually repeats but may differ in a detail not shown here. Identical values can stand only once. Counter-ions that a name gives are not always drawn. Like-named read-outs stand apart in the source and are kept apart here.

What was measured:
SARS‐CoV‐2 M^pro [1] = biological target: T1, SARS‐CoV‐2 M^pro (Severe acute respiratory syndrome coronavirus 2, UniProt P0DTD1); assay: Investigation of inhibition reversibility by jump dilution; assay type: biochemical; conditions: 25 min preincubation, 100‐fold jump dilution
SARS‐CoV‐2 M^pro [2] = biological target: T1, SARS‐CoV‐2 M^pro; assay: Screening of M^pro inhibition at 10 and 50 µM (fluorogenic substrate Boc‐Abu‐Tle‐Leu‐Gln‐AMC); assay type: biochemical; conditions: for M^pro inhibition (in words): screened at 10 and 50 µM
SARS‐CoV‐2 M^pro [3] = biological target: T1, SARS‐CoV‐2 M^pro; assay: Determination of IC50 and K i values; assay type: biochemical; conditions: for Ki: calculated from IC50 with the Cheng‐Prusoff equation
SARS‐CoV‐2 M^pro [4] = biological target: T1, SARS‐CoV‐2 M^pro; assay: Determination of k inac/K i for irreversible inhibitors; assay type: biochemical; conditions: for k inac/K i: second‐order rate constant of enzyme inactivation, reactions monitored for 60 min
A549‐ACE2 cells = conditions: up to 100 µM
in vitro = conditions: human
[5] = In vitro stability in human plasma; assay type: in vitro ADME; conditions: plasma diluted to 80% with sodium phosphate buffer, pH 7.4, male human plasma, 37°C, read-out: plasma half‐life t 1/2
Experimental: For the investigation of the in vitro stability of 12 in human plasma, 100 µM of the M^pro inhibitor was incubated with male human plasma at 37°C for five different time periods.
A volume of 30 µL of a 2 mM compound stock solution in DMSO was mixed with 570 µL of a male human plasma solution (Biomol GmbH, Hamburg, Germany) that was diluted to 80% with 0.05 M sodium phosphate buffer, pH 7.4, and prewarmed at 37°C. The final compound concentration was 100 µM, and the DMSO concentration was 5% (v/v). The mixture was divided into aliquots of 100 µL, which were incubated for different time periods and subsequently quenched by the addition of 200 µL of a 0.05 mg/mL reserpine (internal standard) and 2% AcOH (v/v) solution in MeOH. The samples were vortexed for 1 min, stored on ice for 15 min, and subsequently centrifuged at 15,000 rpm and 4°C for 2 min. After filtration through a 0.45 µm polytetrafluoroethylene membrane filter, the resulting solutions were analyzed by HPLC (Jasco Deutschland GmbH, Pfungstadt, Germany). […] The residual proportion was plotted versus incubation time and non‐linear regression according to Y(t) = Y 0 × e^ (‐kt) provided the first‐order rate constant of degradation k, with Y 0 being the compound proportion at t = 0 and Y(t) the residual proportion after a specific incubation time t. Equation t 1/2 = ln2/k afforded the plasma half‐life t 1/2 (n = 2).

SARS‐CoV‐2 [6] = assay: Cellular antiviral activity, virus plaque assay in A549‐ACE2 cells; assay type: cell-based
[7] = Stability in aqueous media
[8] = phase I study, single‐dose treatment, fasted conditions, without ritonavir coadministration; cited from earlier work
SARS‐CoV‐2 [9] = conditions: A549‐ACE2 cells; cited from earlier work
[10] = [I] = 10 µM, product formation determined after 10 min
[11] = [I] = 50 µM, product formation determined after 10 min
[12] = product formation determined after 10 min
[13] = read-out: Inhibition @ [I] = 10 µM (%)
[14] = read-out: Inhibition @ [I] = 50 µM (%)

With `CN(NC(=O)[C@H](Cc1ccccc1)NC(=O)OCc1ccccc1)C(=O)CCl` [Compound 6, Benzyl (S)‐{1‐[2‐(2‐chloroacetyl)‐2‐methylhydrazineyl]‐1‐oxo‐3‐phenylpropan‐2‐yl}carbamate] the “M^pro inhibition reversibility” value (SARS‐CoV‐2 M^pro [1]) was “irreversible”, the inhibition at 10 µM (SARS‐CoV‐2 M^pro [2]; [10]) was 19% and the inhibition at 50 µM (SARS‐CoV‐2 M^pro [2]; [11]) was 55%. For the same molecule, the Ki (SARS‐CoV‐2 M^pro [3]) was 14.8 ± 0.8 µM and the IC50 (SARS‐CoV‐2 M^pro [3]; [12]) was 30.1 ± 1.7 µM.

In the case of `CCOC(=O)/C=C/C(=O)N(C)NC(=O)[C@H](Cc1ccccc1)NC(=O)OCc1ccccc1` [Compound 5, Ethyl (E)‐4‐{2‐[({benzyloxy}carbonyl)‐L‐phenylalanyl]‐1‐methylhydrazineyl}‐4‐oxobut‐2‐enoate], the inhibition at 10 µM (SARS‐CoV‐2 M^pro [2]; [13]) is reported as 7%, the inhibition at 50 µM (SARS‐CoV‐2 M^pro [2]; [14]) is reported as 13% and the “M^pro inhibition (in words)” value (SARS‐CoV‐2 M^pro [2]) is reported as “did not cause protease inhibition”.

For `CC(C)(C)[C@H](NC(=O)c1cccs1)C(=O)N[C@@H](Cc1ccccc1)C(=O)NN(Cc1cccc(Cl)c1)C(=O)C(Cl)Cl` [Compound 13, N‐{[S]‐1‐[({S}‐1‐{2‐(3‐Chlorobenzyl)‐2‐(2,2‐dichloroacetyl)hydrazineyl}‐1‐oxo‐3‐phenylpropan‐2‐yl)amino]‐3,3‐dimethyl‐1‐oxobutan‐2‐yl}thiophene‐2‐carboxamide], the “M^pro inhibition reversibility” value (SARS‐CoV‐2 M^pro [1]) was “Reversible” and the inhibition at 50 µM (SARS‐CoV‐2 M^pro [2]; [14]) was less than 50%.

For `CN(CC#N)NC(=O)[C@H](Cc1ccccc1)NC(=O)OCc1ccccc1` [Compound 10, Benzyl (S)‐{1‐[2‐(cyanomethyl)‐2‐methylhydrazineyl]‐1‐oxo‐3‐phenylpropan‐2‐yl}carbamate], the inhibition at 10 µM (SARS‐CoV‐2 M^pro [2]; [13]) was 10%, the inhibition at 50 µM (SARS‐CoV‐2 M^pro [2]; [14]) was 11% and the “M^pro inhibition (in words)” value (SARS‐CoV‐2 M^pro [2]) was “did not exhibit notable inhibitory properties”.

In the case of `COC(=O)/C=C/N(C)NC(=O)[C@H](Cc1ccccc1)NC(=O)OCc1ccccc1` [Compound 1, Methyl (E)‐3‐{2‐[({benzyloxy}carbonyl)‐L‐phenylalanyl]‐1‐methylhydrazineyl}acrylate], the inhibition at 10 µM (SARS‐CoV‐2 M^pro [2]; [13]) is reported as 4%, the inhibition at 50 µM (SARS‐CoV‐2 M^pro [2]; [14]) is reported as 0% and the “M^pro inhibition (in words)” value (SARS‐CoV‐2 M^pro [2]) is reported as “inactive”.

For `CC(C)(C)[C@H](NC(=O)c1cccs1)C(=O)N[C@@H](Cc1ccccc1)C(=O)NN(Cc1cccc(Cl)c1)C(=O)CCl` [Compound 12, N‐{[S]‐1‐[({S}‐1‐{2‐(2‐Chloroacetyl)‐2‐(3‐chlorobenzyl)hydrazineyl}‐1‐oxo‐3‐phenylpropan‐2‐yl)amino]‐3,3‐dimethyl‐1‐oxobutan‐2‐yl}thiophene‐2‐carboxamide], the “improvement of k inac/K i value versus 14” value (SARS‐CoV‐2 M^pro [4]; 12 compared with 14) was 50 fold, the “k inac/K i” value (SARS‐CoV‐2 M^pro [4]) was 78,900 M^−1s^−1 and 78,900 ± 12,800 M^−1s^−1 and 100% inhibition @ 50 µM^a Ki = 0.0230 µM^b kinac/Ki = 78,900 M^-1s^-1 c EC50 = 0.47 µM^d M^−1s^−1 and the cytotoxicity (A549‐ACE2 cells) was “no cytotoxicity”. For the same molecule, the CC50 at 24 h (in vitro) was greater than 100 µM, the “M^pro inhibition reversibility” value (SARS‐CoV‐2 M^pro [1]) was “irreversible” and the half-life at 100 µM [5] was 1.6 ± 0.148 h. The inhibition at 50 µM (SARS‐CoV‐2 M^pro [2]; [11]) was 100%, the EC50 (SARS‐CoV‐2 [6]; Severe acute respiratory syndrome coronavirus 2, A549‐ACE2 cells, MOI 0.1, 24 h postinfection, plaque assay, read-out: EC50) was 0.47 µM and the Ki (SARS‐CoV‐2 M^pro [3]) was 0.023 ± 0.0017 µM. For the same molecule, the IC50 (SARS‐CoV‐2 M^pro [3]; [12]) was 0.0466 ± 0.0034 µM.

For `CCOC(=O)N(C)NC(=O)[C@H](Cc1ccccc1)NC(=O)OCc1ccccc1` [Compound 3, Ethyl 2‐{[(N‐benzyloxy)carbonyl]‐L‐phenylalanyl}‐1‐5;methylhydrazine‐1‐carboxylate], the inhibition at 10 µM (SARS‐CoV‐2 M^pro [2]; [13]) was 2%, the inhibition at 50 µM (SARS‐CoV‐2 M^pro [2]; [14]) was 3% and the “M^pro inhibition (in words)” value (SARS‐CoV‐2 M^pro [2]) was “did not cause protease inhibition”.

`CCN(CC)CCOC(=O)c1ccc(N)cc1` [Procaine hydrochloride, reference compound] showed a half-life at 100 µM [5] of 0.13 ± 0.0157 h.

With `COC(=O)CC(=O)N(C)NC(=O)[C@H](Cc1ccccc1)NC(=O)OCc1ccccc1` [Compound 4, Methyl 3‐{2‐[({benzyloxy}carbonyl)‐L‐phenylalanyl]‐1‐6;methylhydrazineyl}‐3‐oxopropanoate] the inhibition at 10 µM (SARS‐CoV‐2 M^pro [2]; [13]) was 0%, the inhibition at 50 µM (SARS‐CoV‐2 M^pro [2]; [14]) was 0% and the “M^pro inhibition (in words)” value (SARS‐CoV‐2 M^pro [2]) was “inactive”.

With `CN(NC(=O)[C@H](Cc1ccccc1)NC(=O)OCc1ccccc1)C(=O)C(Cl)Cl` [Compound 7, Benzyl (S)‐{1‐[2‐(2,2‐dichloroacetyl)‐2‐methylhydrazineyl]‐1‐oxo‐3‐phenylpropan‐2‐yl}carbamate] the “M^pro inhibition reversibility” value (SARS‐CoV‐2 M^pro [1]) was “reversible”, the inhibition at 10 µM (SARS‐CoV‐2 M^pro [2]; [10]) was 85% and the inhibition at 50 µM (SARS‐CoV‐2 M^pro [2]; [11]) was 100%. The Ki (SARS‐CoV‐2 M^pro [3]) was 1.22 ± 0.09 µM and the IC50 (SARS‐CoV‐2 M^pro [3]; [12]) was 2.47 ± 0.18 µM.

Molecule `Cn1cnc(Cn2c(=O)[nH]/c(=N\c3cc4cn(C)nc4cc3Cl)n(Cc3cc(F)c(F)cc3F)c2=O)n1` [ensitrelvir, reference compound] has a CC50 (in vitro) greater than 100 µM and an EC50 (SARS‐CoV‐2 [6]; Severe acute respiratory syndrome coronavirus 2, A549-ACE2, 24 h) of 0.028 µM.

In the case of `CN(NC(=O)[C@H](Cc1ccccc1)NC(=O)OCc1ccccc1)S(=O)(=O)F` [Compound 11, Benzyl (S)‐{1‐[2‐(fluorosulfonyl)‐2‐methylhydrazineyl]‐1‐oxo‐3‐phenylpropan‐2‐yl}carbamate], the “k inac/K i” value (SARS‐CoV‐2 M^pro [4]) is reported as 54.6 ± 25.0 M⁻¹ s⁻¹ and 54.6 M⁻¹ s⁻¹, the “M^pro inhibition reversibility” value (SARS‐CoV‐2 M^pro [1]) is reported as “irreversible” and the “stability in aqueous media” value [7] is reported as “not sufficiently stable”. The inhibition at 10 µM (SARS‐CoV‐2 M^pro [2]; [13]) was 40%, the IC50 (SARS‐CoV‐2 M^pro [3]) was 14.7 ± 0.7 µM and the Ki (SARS‐CoV‐2 M^pro [3]) was 7.24 ± 0.34 µM.

For `CC(C)(C)[C@H](NC(=O)C(F)(F)F)C(=O)N1C[C@H]2[C@@H]([C@H]1C(=O)N[C@H](C#N)C[C@@H]1CCNC1=O)C2(C)C` [nirmatrelvir], the “plasma half‐life” value [8] is given as 2.03 h and the EC50 (SARS‐CoV‐2 [9]) is given as 0.054 µM.

With `CC(C)(C)[C@H](NC(=O)c1cccs1)C(=O)N[C@@H](Cc1ccccc1)C(=O)NN(Cc1cccc(Cl)c1)C(=O)C(F)Cl` (mixture of isomers) [Compound 14, N‐{[2S]‐1‐[({2S}‐1‐{2‐(2‐Chloro‐2‐fluoroacetyl)‐2‐(3‐chlorobenzyl)hydrazineyl}‐1‐oxo‐3 phenylpropan‐2‐yl)amino]‐3,3‐dimethyl‐1‐oxobutan‐2‐yl}thiophene‐2‐carboxamide] the “M^pro inhibition reversibility” value (SARS‐CoV‐2 M^pro [1]) was “irreversible”, the inhibition at 50 µM (SARS‐CoV‐2 M^pro [2]; [14]) was 69% and the Ki (SARS‐CoV‐2 M^pro [3]) was 4.34 ± 0.6 µM. It also gave an IC50 (SARS‐CoV‐2 M^pro [3]; [12]) of 8.82 ± 1.22 µM.

For `COC(=O)/C=C(\C(=O)OC)N(C)NC(=O)[C@H](Cc1ccccc1)NC(=O)OCc1ccccc1` [Compound 2, Dimethyl 2‐{2‐[({benzyloxy}carbonyl)‐L‐phenylalanyl]‐1‐methylhydrazineyl}maleate], the inhibition at 10 µM (SARS‐CoV‐2 M^pro [2]; [13]) was 1%, the inhibition at 50 µM (SARS‐CoV‐2 M^pro [2]; [14]) was 2% and the “M^pro inhibition (in words)” value (SARS‐CoV‐2 M^pro [2]) was “inactive”.

With `CN(NC(=O)[C@H](Cc1ccccc1)NC(=O)OCc1ccccc1)C(=O)C(F)(F)Cl` [Compound 9, Benzyl (S)‐{1‐[2‐(2‐chloro‐2,2‐difluoroacetyl)‐2‐methylhydrazineyl]‐1‐oxo‐3‐phenylpropan‐2‐yl}carbamate] the inhibition at 10 µM (SARS‐CoV‐2 M^pro [2]; [13]) was 9%, the inhibition at 50 µM (SARS‐CoV‐2 M^pro [2]; [14]) was 15% and the “M^pro inhibition (in words)” value (SARS‐CoV‐2 M^pro [2]) was “failed to strongly inhibit”.

In the case of `CN(NC(=O)[C@H](Cc1ccccc1)NC(=O)OCc1ccccc1)C(=O)C(F)Cl` (stereo partly shown) [Compound 8, Benzyl {[2S]‐1‐[2‐(2‐chloro‐2‐fluoroacetyl)‐2‐methylhydrazinyl]‐1‐oxo‐3‐phenylpropan‐2‐yl}carbamate], the inhibition at 10 µM (SARS‐CoV‐2 M^pro [2]; [13]) is reported as 10%, the inhibition at 50 µM (SARS‐CoV‐2 M^pro [2]; [14]) is reported as 16% and the “M^pro inhibition (in words)” value (SARS‐CoV‐2 M^pro [2]) is reported as “failed to strongly inhibit”.
